In patent publication US9677052B2, “Modified lipopolysaccharide glycoform and method of use” (THE TRUSTEES OF PRINCETON UNIVERSITY, priority 2014, dated 2017):

Experiments:
[1] = Surface plasmon resonance, vancomycin over reference channel (LPS from waaL+); type: binding, Escherichia coli; conditions: SPR, 25° C., different concentrations of vancomycin
Experimental: Purified LPS (0.5 mg/ml) from strains MG1210 or MG1211 were extruded in 20 mMTris/HCl pH 8, 150 mM NaCl and immobilized on poly-L-lysine coated CM3 Biacore chips on the active and reference channel, respectively (Malojcić et al., 2014). All experiments were performed using a Biacore X100 instrument at 25° C. at a flow rate of 10 μl/min with 20 mMTris/HCl pH 8, 150 mM NaCl buffer. Different concentrations of vancomycin were injected for 400 s and dissociation was recorded for another 500 s to return to baseline. […] The equilibrium signal in the difference channel was fitted to f=Bmax*abs(x)/(Kd+abs(x)) with R^2=0.88.

[2] = Surface plasmon resonance, vancomycin over immobilized purified LPS*; set-up: species or system Escherichia coli; conditions: SPR, Biacore X100, 25° C., LPS* immobilized on CM3 chip, equilibrium signal fit; read-out: Kd, specific binding of vancomycin to LPS*
Experimental: (§1) The ability of purified LPS* to bind vancomycin in vitro was assessed. LPS* was immobilized on a carboxymethylated dextran (CM3) chip and surface plasmon resonance was used to monitor interactions with differing concentrations of vancomycin. […] To test this hypothesis, weperformed live cell microscopy using a fluorescent vancomycin-BODIPY. A wild-type strain background with an intact OM that prevents the influx of vancomycin was used, to avoid labeling intracellular sites of PG synthesis.

[3] = tested on: waaL+ cells; conditions: 1 μg/ml vancomycin-BODIPY-FL, 10 min, wild-type background with intact OM
Experimental: (§2) Overnight cultures were sub-cultured at 1:100 into fresh LB broth and grown for 1.5 h. A1 ml aliquot was taken, pelleted and was twice washed with 1 ml M63 medium. Cells were resuspended in 0.1 ml of M63 broth containing 1 μg/ml of vancomycin-BODIPY-FL (LifeTechnologies, V-34850). Cells were incubated at room temperature for 10 min and then washed twice with 1 ml M63 broth. Cells were then resuspended in 0.03 ml of M63 broth, and approximately […] was spotted onto an M63-agarose pad. Cells were immediately visualized on a Nikon Eclipse 90i microscope with a Nikon Plan Apo 1.4/100× Oil Ph3 phase objective.
as §1

[4] = tested on: waaL15 bacteria; conditions: 1 μg/ml vancomycin-BODIPY-FL, 10 min, wild-type background with intact OM
Experimental: as §2, §1

CN[C@H](CC(C)C)C(=O)N[C@H]1C(=O)N[C@@H](CC(N)=O)C(=O)N[C@H]2C(=O)N[C@H]3C(=O)N[C@H](C(=O)N[C@H](C(=O)O)c4cc(O)cc(O)c4-c4cc3ccc4O)[C@H](O)c3ccc(c(Cl)c3)Oc3cc2cc(c3O[C@@H]2O[C@H](CO)[C@@H](O)[C@H](O)[C@H]2O[C@H]2C[C@](C)(N)[C@H](O)[C@H](C)O2)Oc2ccc(cc2Cl)[C@H]1O [vancomycin]
binding to the reference channel [1]: No binding | Kd [2]: 0.48 ± 0.08 µM

vancomycin-BODIPY-FL
fluorescent labeling of cells [3]: could not be fluorescently labeled | fluorescent labeling of cells [4]: circumferential labeling
